Results published in patent US20240382483A1, “HETEROCYCLIC EGFR INHIBITORS FOR USE IN THE TREATMENT OF CANCER” (Blueprint Medicines Corporation, priority 2021, published 2024).

Tests used:
EGFR (L858R T790M C797S) = target: T1, EGFR (L858R T790M C797S) (Homo sapiens, UniProt P00533, C797S/L858R/T790M); assay: Biochemical EGFR inhibition assay (Caliper mobility shift), EGFR LRTMCS; conditions: LRTMCS (PH) IC50 (nM) @ 1 mM ATP (Num), EGFR LRTMCS mutant
T1 construct: purchased SignalChem E10-122VG
Procedure, shortened: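 Kinase reactions at 25 °C run to 10–20% peptide phosphorylation, stopped with 35 mM EDTA. Phosphorylated product and substrate separated electrophoretically by mobility shift. Apparent IC50 from percent activity versus log compound concentration.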

[1] = target: T2, intracellular phosphorylation of EGFR in NCI-H1975 cell line that harbors the EGFR L858R T790M mutations (Homo sapiens, UniProt P00533, L858R/T790M); assay: NCI-H1975 pEGFR AlphaLISA assay; assay type: cell-based; conditions: NCI-H1975 cells (EGFR L858R T790M), p-EGFR (Tyr1068), 4-5 hours incubation; read-out: Ext pEGFR H1975 GMean IC50 (nM) Protocol: @Pharmaron AlphaLISA (Num)
T2 construct: NCI-H1975 cell line that harbors the EGFR L858R T790M mutations (ATCC, CRL-5908); host or cells: NCI-H1975
Method: On the next day, the test compounds and DMSO control were added into H1975 cell plate followed by incubation at 37C/5% CO2 for 4-5 hours. […] Then 5 μL of a donor bead mix was added to each well followed by overnight incubation at room temperature in dark. On the next day, the plate was read at a compatible plate reader to obtain pEGFR signal. Percent of pEGFR inhibition was plotted against log concentration of compounds to generate IC50 values.

T1 sequence (P00533 25-1210 T790M/C797S/L858R): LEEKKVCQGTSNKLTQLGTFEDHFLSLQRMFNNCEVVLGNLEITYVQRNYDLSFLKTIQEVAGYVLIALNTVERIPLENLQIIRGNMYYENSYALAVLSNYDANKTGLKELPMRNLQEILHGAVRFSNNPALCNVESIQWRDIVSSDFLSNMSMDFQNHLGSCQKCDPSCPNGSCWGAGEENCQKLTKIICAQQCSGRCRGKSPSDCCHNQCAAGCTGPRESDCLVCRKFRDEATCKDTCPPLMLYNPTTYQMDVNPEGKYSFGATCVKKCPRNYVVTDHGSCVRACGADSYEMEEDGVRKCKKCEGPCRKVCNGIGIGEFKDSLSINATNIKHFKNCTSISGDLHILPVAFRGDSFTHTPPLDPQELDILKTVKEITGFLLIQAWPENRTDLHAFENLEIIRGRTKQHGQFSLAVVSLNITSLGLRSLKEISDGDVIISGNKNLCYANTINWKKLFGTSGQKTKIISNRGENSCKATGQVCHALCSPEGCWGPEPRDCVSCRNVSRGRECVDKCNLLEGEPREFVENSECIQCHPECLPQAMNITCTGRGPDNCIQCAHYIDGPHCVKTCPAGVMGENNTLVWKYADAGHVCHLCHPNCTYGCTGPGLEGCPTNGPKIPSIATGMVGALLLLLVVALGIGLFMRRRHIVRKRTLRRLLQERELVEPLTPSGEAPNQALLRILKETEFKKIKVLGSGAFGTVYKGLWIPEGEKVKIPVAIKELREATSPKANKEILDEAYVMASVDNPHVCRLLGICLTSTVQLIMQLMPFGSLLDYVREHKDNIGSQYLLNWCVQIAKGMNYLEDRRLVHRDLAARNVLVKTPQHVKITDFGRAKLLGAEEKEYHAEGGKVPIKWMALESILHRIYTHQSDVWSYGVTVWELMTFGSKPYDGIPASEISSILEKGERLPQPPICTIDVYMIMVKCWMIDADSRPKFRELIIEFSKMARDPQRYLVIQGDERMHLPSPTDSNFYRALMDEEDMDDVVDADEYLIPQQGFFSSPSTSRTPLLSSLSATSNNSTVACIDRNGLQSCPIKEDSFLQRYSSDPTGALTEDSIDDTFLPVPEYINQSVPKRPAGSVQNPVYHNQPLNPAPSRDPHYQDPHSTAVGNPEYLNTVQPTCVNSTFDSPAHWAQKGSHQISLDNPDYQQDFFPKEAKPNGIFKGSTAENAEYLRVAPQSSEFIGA
T2 sequence (P00533 25-1210 T790M/L858R): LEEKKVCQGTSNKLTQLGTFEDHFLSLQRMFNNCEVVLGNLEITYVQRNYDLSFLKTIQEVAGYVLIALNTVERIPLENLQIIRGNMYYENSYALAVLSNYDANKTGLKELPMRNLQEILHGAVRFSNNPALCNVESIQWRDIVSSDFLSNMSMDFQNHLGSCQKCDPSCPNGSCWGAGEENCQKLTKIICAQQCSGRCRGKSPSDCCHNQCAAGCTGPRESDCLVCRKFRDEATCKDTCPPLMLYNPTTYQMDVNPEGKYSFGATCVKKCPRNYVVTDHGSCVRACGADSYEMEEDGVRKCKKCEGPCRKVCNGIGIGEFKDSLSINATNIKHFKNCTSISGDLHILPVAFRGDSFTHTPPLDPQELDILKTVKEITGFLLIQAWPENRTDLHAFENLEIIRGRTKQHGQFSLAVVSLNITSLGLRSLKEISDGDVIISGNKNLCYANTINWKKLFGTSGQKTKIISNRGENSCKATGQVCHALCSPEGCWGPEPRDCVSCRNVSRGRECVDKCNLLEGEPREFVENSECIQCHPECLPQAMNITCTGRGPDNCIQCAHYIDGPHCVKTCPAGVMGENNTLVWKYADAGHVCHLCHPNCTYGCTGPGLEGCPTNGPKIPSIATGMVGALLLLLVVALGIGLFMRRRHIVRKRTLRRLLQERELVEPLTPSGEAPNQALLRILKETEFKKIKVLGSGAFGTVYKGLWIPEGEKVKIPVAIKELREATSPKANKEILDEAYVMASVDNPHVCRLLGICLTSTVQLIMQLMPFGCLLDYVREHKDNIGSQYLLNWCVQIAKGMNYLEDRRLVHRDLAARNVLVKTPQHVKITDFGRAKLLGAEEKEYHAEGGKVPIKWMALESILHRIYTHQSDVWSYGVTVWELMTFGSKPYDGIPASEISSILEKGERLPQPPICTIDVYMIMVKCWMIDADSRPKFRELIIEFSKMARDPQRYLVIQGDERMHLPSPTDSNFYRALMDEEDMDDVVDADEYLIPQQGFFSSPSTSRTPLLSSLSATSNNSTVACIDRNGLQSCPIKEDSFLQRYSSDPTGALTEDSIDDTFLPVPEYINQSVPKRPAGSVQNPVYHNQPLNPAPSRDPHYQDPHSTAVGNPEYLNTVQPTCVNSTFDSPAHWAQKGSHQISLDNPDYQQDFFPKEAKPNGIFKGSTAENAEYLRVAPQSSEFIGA

| Compound | IC50 (EGFR (L858R T790M C797S)) [nM] | IC50 [1] [nM] |
| --- | --- | --- |
| CO[C@@H]1CCN(c2nccc(Nc3cc4c(C(C)C)cnc(N5CCC56CN(C)C6)c4cn3)n2)C[C@@H]1F [Example 41, N-(2-((3S,4R)-3-fluoro-4-methoxypiperidin-1-yl)pyrimidin-4-yl)-5-isopropyl-8-(6-methyl-1,6-diazaspiro[3.3]heptan-1-yl)-2,7-naphthyridin-3-amine] | < 15 | 30 to 50 |
| CC(C)c1cnc(-c2cnn(S(C)(=O)=O)c2)c2cnc(Nc3ccnc(N4CC[C@@H](O)[C@@](C)(F)C4)n3)cc12 [Example 18, (3S,4R)-3-fluoro-1-(4-((5-isopropyl-8-(1-(methylsulfonyl)-1H-pyrazol-4-yl)-2,7-naphthyridin-3-yl)amino)pyrimidin-2-yl)-3-methylpiperidin-4-ol] | 15 to 20 | 30 to 50 |
| CC(C)c1cnc(N2CC[C@H]2CO)c2cnc(Nc3ccnc(N4CC[C@@H](O)[C@@](C)(F)C4)n3)cc12 [Example 52, (3S,4R)-3-fluoro-1-(4-((8-((S)-2-(hydroxymethyl)azetidin-1-yl)-5-isopropyl-2,7-naphthyridin-3-yl)amino)pyrimidin-2-yl)-3-methylpiperidin-4-ol] | < 15 | < 10 |
| CC(C)c1cnc(N2CC[C@]23CCN(C)C3)c2cnc(Nc3ccnc(N4CC[C@@H](O)[C@@](C)(F)C4)n3)cc12 (single isomer, unassigned) [Example 198, (3S,4R)-3-fluoro-1-(4-((5-isopropyl-8-((S)-6-methyl-1,6-diazaspiro[3.4]octan-1-yl)-2,7-naphthyridin-3-yl)amino)pyrimidin-2-yl)-3-methylpiperidin-4-ol or (3S,4R)-3-fluoro-1-(4-((5-isopropyl-8-((R)-6-methyl-1,6-diazaspiro[3.4]octan-1-yl)-2,7-naphthyridin-3-yl)amino)pyrimidin-2-yl)-3-methylpiperidin-4-ol] | 15 to 20 | 30 to 50 |
| CC(=O)N1CC(c2ccc(C(C)C)c3cc(Nc4ccnc(N5CC[C@@H](O)[C@@](C)(F)C5)n4)ncc23)C1 [Example 4, 1-(3-(3-((2-((3S,4R)-3-fluoro-4-hydroxy-3-methylpiperidin-1-yl)pyrimidin-4-yl)amino)-5-isopropylisoquinolin-8-yl)azetidin-1-yl)ethan-1-one] | < 15 | 20 to 30 |
| CC(C)c1ccc(N2CC3(CCS3(=O)=O)C2)c2cnc(Nc3ccnc(N4CC[C@@H](O)[C@@](C)(F)C4)n3)cc12 [Example 35, 6-(3-((2-((3S,4R)-3-fluoro-4-hydroxy-3-methylpiperidin-1-yl)pyrimidin-4-yl)amino)-5-isopropylisoquinolin-8-yl)-1-thia-6-azaspiro[3.3]heptane 1,1-dioxide] | < 15 | < 10 |
| C[C@@H]1[C@H](F)CN1c1ncc([C@@H](C)CO)c2cc(Nc3ccnc(N4CC[C@@H](O)[C@@](C)(F)C4)n3)ncc12 (single isomer, unassigned) [Example 210, (3S,4R)-3-fluoro-1-(4-((8-((2R,3R)-3-fluoro-2-methylazetidin-1-yl)-5-((R)-1-hydroxypropan-2-yl)-2,7-naphthyridin-3-yl)amino)pyrimidin-2-yl)-3-methylpiperidin-4-ol or (3S,4R)-3-fluoro-1-(4-((8-((2R,3R)-3-fluoro-2-methylazetidin-1-yl)-5-((S)-1-hydroxypropan-2-yl)-2,7-naphthyridin-3-yl)amino)pyrimidin-2-yl)-3-methylpiperidin-4-ol] | < 15 | 10 to 20 |

Results, then the compound that gave them:

| IC50 (EGFR (L858R T790M C797S)) [nM] | IC50 [1] [nM] | Compound |
| --- | --- | --- |
| 20 to 30 | > 50 | C[C@@H]1CCN1c1ncc([C@@H](C)C(=O)N(C)C)c2cc(Nc3ccnc(N4CC[C@@H](O)[C@@](C)(F)C4)n3)ncc12 (single isomer, unassigned) [Example 185, (R)-2-(6-((2-((3S,4R)-3-fluoro-4-hydroxy-3-methylpiperidin-1-yl)pyrimidin-4-yl)amino)-1-((R)-2-methylazetidin-1-yl)-2,7-naphthyridin-4-yl)-N,N-dimethylpropanamide or (S)-2-(6-((2-((3S,4R)-3-fluoro-4-hydroxy-3-methylpiperidin-1-yl)pyrimidin-4-yl)amino)-1-((R)-2-methylazetidin-1-yl)-2,7-naphthyridin-4-yl)-N,N-dimethylpropanamide] |
| < 15 | 20 to 30 | CO[C@H]1CCN(c2nccc(Nc3cc4c(C(C)C)cnc(N5CC(O)C5)c4cn3)n2)C[C@H]1F [Example 44, 1-(6-((2-((3R,4S)-3-fluoro-4-methoxypiperidin-1-yl)pyrimidin-4-yl)amino)-4-isopropyl-2,7-naphthyridin-1-yl)azetidin-3-ol] |
| < 15 | 20 to 30 | CC(C)c1cnc(N2CC[C@@]23CCN(C)C3)c2cnc(Nc3ccnc(N4CC[C@@H](O)[C@@](C)(F)C4)n3)cc12 (single isomer, unassigned) [Example 199, (3S,4R)-3-fluoro-1-(4-((5-isopropyl-8-((R)-6-methyl-1,6-diazaspiro[3.4]octan-1-yl)-2,7-naphthyridin-3-yl)amino)pyrimidin-2-yl)-3-methylpiperidin-4-ol or (3S,4R)-3-fluoro-1-(4-((5-isopropyl-8-((S)-6-methyl-1,6-diazaspiro[3.4]octan-1-yl)-2,7-naphthyridin-3-yl)amino)pyrimidin-2-yl)-3-methylpiperidin-4-ol] |
| 15 to 20 | 20 to 30 | CC(C)c1cnc(N2CC(CCO)C2)c2cnc(Nc3ccnc(N4CC[C@@H](O)[C@@](C)(F)C4)n3)cc12 [Example 77, (3S,4R)-3-fluoro-1-(4-((8-(3-(2-hydroxyethyl)azetidin-1-yl)-5-isopropyl-2,7-naphthyridin-3-yl)amino)pyrimidin-2-yl)-3-methylpiperidin-4-ol] |
| < 15 | 20 to 30 | CC(C)c1ccc(N2CC(Cn3ccnn3)C2)c2cnc(Nc3ccnc(N4CC[C@](C)(O)[C@H](F)C4)n3)cc12 [Example 40, (3R,4S)-1-(4-((8-(3-((1H-1,2,3-triazol-1-yl)methyl)azetidin-1-yl)-5-isopropylisoquinolin-3-yl)amino)pyrimidin-2-yl)-3-fluoro-4-methylpiperidin-4-ol] |
| < 15 | < 10 | [2H]C([2H])([2H])O[C@@H]1CCN(c2nccc(Nc3cc4c(C(C)C)cnc(N5C[C@H](OCCO)[C@H]5C)c4cn3)n2)C[C@@H]1F [Example 140, 2-(((2R,3S)-1-(6-((2-((3S,4R)-3-fluoro-4-(methoxy-d3)piperidin-1-yl)pyrimidin-4-yl)amino)-4-isopropyl-2,7-naphthyridin-1-yl)-2-methylazetidin-3-yl)oxy)ethan-1-ol] |
| < 15 | 10 to 20 | CC(C)c1cnc(N2CC[C@H]2CF)c2cnc(Nc3ccnc(N4CC[C@@H](O)[C@@](C)(F)C4)n3)cc12 [Example 76, (3S,4R)-3-fluoro-1-(4-((8-((S)-2-(fluoromethyl)azetidin-1-yl)-5-isopropyl-2,7-naphthyridin-3-yl)amino)pyrimidin-2-yl)-3-methylpiperidin-4-ol] |
| < 15 | 30 to 50 | CC(C)c1cnc(-c2cn(C3COC3)cn2)c2cnc(Nc3ccnc(N4CC[C@@H](O)[C@@](C)(F)C4)n3)cc12 [Example 20, (3S,4R)-3-fluoro-1-(4-((5-isopropyl-8-(1-(oxetan-3-yl)-1H-imidazol-4-yl)-2,7-naphthyridin-3-yl)amino)pyrimidin-2-yl)-3-methylpiperidin-4-ol] |
